Assay results published in patent US10752612B2, “PLK4 inhibitors” (LUDWIG INSTITUTE FOR CANCER RESEARCH LTD, priority 2015, dated 2020).
Values joined by “and” are separate entries in the source; they are usually repeats but may differ in a detail not shown here. Equal values may be shown once. “Also recorded” adds a separate entry of the source.

What was measured:
HeLa cells = test: Quantification of centrosome numbers from fixed samples, HeLa; format: cell-based, human; conditions: HeLa, 50 or 100 nM
Procedure: Quantification of centrosome numbers from fixed samples. Cells were seeded onto poly-D-lysine-coated coverslips (Neuvitro) in 12-well plates at least 8 hours before fixation. At the required timepoints for each experiment, cells were washed once with PBS and fixed in 100% methanol (−20° C., 5 minutes). Fixed cells were washed with PBS, blocked with PBS+4% BSA+0.1% Triton X-100, and stained with primary antibodies against γ-tubulin and Cep192, which localize to the pericentriolar material and proximal to the outer centriole wall, respectively (47, 48). Alexa488-labeled anti-mouse secondary antibody (against anti-γ-tubulin) and Alexa647-labeled anti-rabbit secondary antibody (against anti-Cep192) were both used at 1.5 jag/mL. Samples were mounted onto slides with Prolong Gold antifade reagent (Life Technologies). Images of fixed interphase cells were acquired on a Nikon Eclipse E800 with a 60×1.4 NA PlanApo objective and ORCA-ER camera (Hamamatsu) using Metamorph software (Molecular Devices). Quantification of foci was performed manually. A focus was defined as a bona-fide centrosome if it was positive for both γ-tubulin and Cep192 (true for >95% of foci).

[1] = test system: full-length mouse Plk4-YFP; test: Plk4 stabilization assay, Plk4-YFP DLD-1 cells; format: cell-based, human; conditions: 250 nM, 24 hours
Procedure: Plk4 stabilization assay. Expression was induced in Plk4-YFP DLD-1 cells using 1 μg/ml doxycycline. At the same time, cells were treated with the indicated concentrations of compounds. Cells were incubated for 24 hours before harvesting for Western blotting (see below).
Western blotting. […] Cell extracts were stored at −80° C. until use.

Aurora B = molecular target: T1, Aurora B (Homo sapiens, UniProt Q96GD4); test: Aurora B radiometric kinase assay (Reaction Biology); format: biochemical
T1 construct: Reaction Biology (Malvern, Pa.), contract assay
Procedure: Aurora B and other radiometric kinase assays were performed by Reaction Biology (Malvern, Pa.).

SRPK1 = molecular target: T2, SRPK1 (Homo sapiens, UniProt Q96SB4); test: Radiometric kinase assay, off-target SRPK1; format: biochemical
T2 construct: Reaction Biology (Malvern, Pa.), contract assay
Procedure: (§1) Aurora B and other radiometric kinase assays were performed by Reaction Biology (Malvern, Pa.). Kinome profiling of centrinone and centrinone-B was performed by DiscoveRx (San Diego, Calif.).

RET = molecular target: T3, RET (Homo sapiens, UniProt P07949); test: Radiometric kinase assay, off-target RET; format: biochemical
T3 construct: Reaction Biology (Malvern, Pa.), contract assay
Procedure: as §1

ROS/ROS1 = ROS/ROS1 (Homo sapiens, UniProt P08922); test: Radiometric kinase assay, off-target ROS/ROS1; format: biochemical
Procedure: as §1

FLT4/VEGFR3 = FLT4/VEGFR3 (Homo sapiens, UniProt P35916); test: Radiometric kinase assay, off-target FLT4/VEGFR3; format: biochemical
Procedure: as §1

[2] = molecular target: T4, human Plk4 kinase domain (aa 2-275) (Homo sapiens, UniProt O00444); test: Plk4 kinase assay (ADP-Glo); format: biochemical
T4 construct: purified 6×His-tagged human Plk4 kinase domain (aa 2-275); 6xHis; made in house; host or cells: E. coli
T4 sequence (O00444 2-275): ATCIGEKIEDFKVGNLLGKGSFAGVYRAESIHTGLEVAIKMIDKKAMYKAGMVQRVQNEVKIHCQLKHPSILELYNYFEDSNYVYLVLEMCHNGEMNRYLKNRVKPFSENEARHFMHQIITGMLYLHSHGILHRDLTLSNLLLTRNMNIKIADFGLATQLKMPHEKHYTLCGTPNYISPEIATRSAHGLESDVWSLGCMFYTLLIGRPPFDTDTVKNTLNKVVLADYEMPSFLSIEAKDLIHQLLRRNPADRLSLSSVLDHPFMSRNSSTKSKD
Summary of the method: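 Enzyme at 2.5-10 nM final, pH 8.0, reacted 4-16 hours at 25° C; ADP generation read by ADP-Glo luminescence. Ki derived from IC50 by Cheng-Prusoff or, for tight binders, Copeland formalism.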

TNK1 = molecular target: T5, TNK1 (Homo sapiens, UniProt Q13470); test: Radiometric kinase assay, off-target TNK1; format: biochemical
T5 construct: Reaction Biology (Malvern, Pa.), contract assay
T5 sequence (Q13470 1-666): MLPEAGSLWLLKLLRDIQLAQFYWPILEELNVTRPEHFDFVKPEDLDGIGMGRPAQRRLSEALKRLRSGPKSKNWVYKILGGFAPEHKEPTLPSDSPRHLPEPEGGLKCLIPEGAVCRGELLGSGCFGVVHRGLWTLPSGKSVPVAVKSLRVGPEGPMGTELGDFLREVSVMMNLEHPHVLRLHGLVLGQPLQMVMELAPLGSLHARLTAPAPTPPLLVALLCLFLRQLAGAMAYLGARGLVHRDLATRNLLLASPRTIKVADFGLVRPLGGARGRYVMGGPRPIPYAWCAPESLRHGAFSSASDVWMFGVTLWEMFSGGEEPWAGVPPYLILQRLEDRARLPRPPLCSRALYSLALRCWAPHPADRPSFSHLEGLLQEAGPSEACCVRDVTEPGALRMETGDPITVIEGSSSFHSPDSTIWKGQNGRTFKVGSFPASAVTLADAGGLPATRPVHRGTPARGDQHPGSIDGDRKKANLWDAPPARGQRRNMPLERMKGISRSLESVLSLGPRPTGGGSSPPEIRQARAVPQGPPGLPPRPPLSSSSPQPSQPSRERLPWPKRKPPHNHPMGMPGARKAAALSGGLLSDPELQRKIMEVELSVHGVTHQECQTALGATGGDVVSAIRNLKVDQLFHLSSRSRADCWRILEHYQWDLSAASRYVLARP
Procedure: as §1

LRRK2 = molecular target: T6, LRRK2 (Homo sapiens, UniProt Q5S007); test: Radiometric kinase assay, off-target LRRK2; format: biochemical
T6 construct: Reaction Biology (Malvern, Pa.), contract assay
Procedure: as §1

human Aurora A = molecular target: T7, human Aurora A (Homo sapiens, UniProt O14965); test: Aurora A kinase assay (ADP-Glo); format: biochemical
T7 construct: purchased Millipore
T7 sequence (O14965 1-403): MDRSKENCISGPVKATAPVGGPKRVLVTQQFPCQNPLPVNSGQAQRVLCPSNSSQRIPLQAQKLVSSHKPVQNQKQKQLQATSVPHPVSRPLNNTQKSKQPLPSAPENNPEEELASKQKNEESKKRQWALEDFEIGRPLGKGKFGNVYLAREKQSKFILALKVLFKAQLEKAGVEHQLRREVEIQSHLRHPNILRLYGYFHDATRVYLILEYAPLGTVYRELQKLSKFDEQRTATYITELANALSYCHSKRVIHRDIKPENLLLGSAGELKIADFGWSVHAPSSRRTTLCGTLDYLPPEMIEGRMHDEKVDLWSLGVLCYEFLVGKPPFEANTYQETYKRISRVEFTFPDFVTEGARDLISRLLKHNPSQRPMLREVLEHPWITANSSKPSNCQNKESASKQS
Procedure: LRRASLG)+inhibitors arrayed in dose response (added as described above). […] Detection, measurement and data analysis were performed as described above.

centrosomes in cells = test: Cellular centrosome depletion (cell line not stated); format: cell-based; conditions: cellular activity, FIG. 1A
Procedure: Centriole depletion assay for compound screening. 1,500 NIH/3T3 cells or 3,500 HCT116 cells were seeded into 96-well SCREENSTAR microplates (Greiner) and treated with inhibitors in dose response, added from DMSO stocks. After 3 days, cells were fixed directly in the wells with 100% methanol (−20° C., 10 minutes). The fixed cells were washed with PBS and stained with primary antibodies against γ-tubulin and, for a subset of compounds, Cep192. Cells were then stained with Alexa-488 donkey anti-mouse and Alexa-647 goat anti-rabbit secondary antibodies. Cells were imaged using either a Model 500 LumaScope (Etaluma) or an EVOS FL (Advanced Microscopy Group/Life Technologies), and centriole depletion was determined by scoring the percentage of cells without visible γ-tubulin/Cep192 foci.

JAK2 = molecular target: T8, JAK2 (Homo sapiens, UniProt O60674); test: Radiometric kinase assay, off-target JAK2; format: biochemical
T8 construct: Reaction Biology (Malvern, Pa.), contract assay
Procedure: as §1

[3] = molecular target: T9, inhibitor-resistant mutant Plk4 (G95L) (Homo sapiens, UniProt O00444, G95L); test: Plk4 (G95L) mutant kinase assay; format: biochemical
T9 construct: Plk4 assays used equal volumes of: (1) purified 6×His-tagged human Plk4 kinase domain (aa 2-275); 6xHis; made in house; host or cells: E. coli
Procedure: Kinase assays. […] Reactions were allowed to proceed for 4-16 hours at 25° C. Detection was performed using ADP-Glo reagent (Promega), following manufacturer's instructions. Luminescence was measured on an Infinite M1000 plate reader (Tecan). Data were fit using Prism (GraphPad) and Kis were calculated from IC50 data using the Cheng and Prusoff equation (37) or the Copeland formalism for tight-binding inhibitors (38).

RPE1 cells = test: Analysis of mitosis and daughter cell fate, RPE1; format: cell-based, human; conditions: RPE1, only mitotic events with clear missegregation, FIG. 18B
Procedure: Analysis of mitosis and daughter cell fate. […] Cells were seeded into 96-well cycloolefin plates at 5000 cells/well, 8-10 hours before imaging. Movies were acquired on the CV1000 with a 40×0.95 NA U-PlanApo objective. The imaging chamber was maintained at 37° C. and 5% CO2. Image acquisition and data analysis were performed using CellVoyager software. 20 fields/well were imaged. For HeLa and NIH/3T3 cells, 5×2 μm z-sections in the GFP (25% power, 125 ms, 30% gain) and RFP (25% power, 100 ms, 30% gain) channels were captured in each field, at 5-minute intervals for 24 hours. For RPE1 cells, 5×2 μm z-sections in the GFP (20% power, 100 ms, 30% gain) and RFP (25% power, 100 ms, 30% gain) channels were captured in each field, at 5-minute intervals for 8 hours. To track RPE1 daughter cell fate, imaging was then switched to 3×4 μm z-sections in the RFP channel only, at 10-minute intervals for 48 hours. Mitosis was measured from nuclear envelope breakdown to anaphase onset (or arrest). Results represent combined measurements of 100 mother cells per condition from 2-4 independent experiments.
To study the correlation between mother cell prometaphase duration and daughter cell fate, RPE1 cells co-expressing centrin-GFP and H2B-RFP were seeded into 96-well cycloolefin plates at 5000 cells/well, 8-10 hours before imaging. Cells were treated with 80 nM nocodazole and immediately imaged on the CV1000 system with a 40×0.95 NA U-PlanApo objective. The imaging chamber was maintained at 37° C. and 5% CO2. 20 fields/well were imaged. 5×2 Lm z-sections in the GFP (20% power, 100 ms, 30% gain) and RFP (25% power, 100 ms, 30% gain) channels were captured in each field, at 5-minute intervals for 6 hours. The plate was then removed from the microscope, and wells were washed 6 times with warm medium. The plate was returned to the microscope, and imaging was resumed, capturing 3×4 Lm z-sections in the RFP channel only, at 10-minute intervals for 50 hours. To study the effect of chromosome missegregation on daughter cell fate, cells were treated with 1 LM NMS-P715 to inhibit the spindle assembly checkpoint kinase Mps1, then imaged as described above. Only mitotic events with clear missegregation (lagging chromosomes and subsequent formation of daughter cells with micronuclei) were analyzed. For both experiments, results represent combined measurements of 100 mother cells from 2 independent experiments.

[4] = off-target from DiscoveRx kinome profiling

T6 sequence (Q5S007 whole entry): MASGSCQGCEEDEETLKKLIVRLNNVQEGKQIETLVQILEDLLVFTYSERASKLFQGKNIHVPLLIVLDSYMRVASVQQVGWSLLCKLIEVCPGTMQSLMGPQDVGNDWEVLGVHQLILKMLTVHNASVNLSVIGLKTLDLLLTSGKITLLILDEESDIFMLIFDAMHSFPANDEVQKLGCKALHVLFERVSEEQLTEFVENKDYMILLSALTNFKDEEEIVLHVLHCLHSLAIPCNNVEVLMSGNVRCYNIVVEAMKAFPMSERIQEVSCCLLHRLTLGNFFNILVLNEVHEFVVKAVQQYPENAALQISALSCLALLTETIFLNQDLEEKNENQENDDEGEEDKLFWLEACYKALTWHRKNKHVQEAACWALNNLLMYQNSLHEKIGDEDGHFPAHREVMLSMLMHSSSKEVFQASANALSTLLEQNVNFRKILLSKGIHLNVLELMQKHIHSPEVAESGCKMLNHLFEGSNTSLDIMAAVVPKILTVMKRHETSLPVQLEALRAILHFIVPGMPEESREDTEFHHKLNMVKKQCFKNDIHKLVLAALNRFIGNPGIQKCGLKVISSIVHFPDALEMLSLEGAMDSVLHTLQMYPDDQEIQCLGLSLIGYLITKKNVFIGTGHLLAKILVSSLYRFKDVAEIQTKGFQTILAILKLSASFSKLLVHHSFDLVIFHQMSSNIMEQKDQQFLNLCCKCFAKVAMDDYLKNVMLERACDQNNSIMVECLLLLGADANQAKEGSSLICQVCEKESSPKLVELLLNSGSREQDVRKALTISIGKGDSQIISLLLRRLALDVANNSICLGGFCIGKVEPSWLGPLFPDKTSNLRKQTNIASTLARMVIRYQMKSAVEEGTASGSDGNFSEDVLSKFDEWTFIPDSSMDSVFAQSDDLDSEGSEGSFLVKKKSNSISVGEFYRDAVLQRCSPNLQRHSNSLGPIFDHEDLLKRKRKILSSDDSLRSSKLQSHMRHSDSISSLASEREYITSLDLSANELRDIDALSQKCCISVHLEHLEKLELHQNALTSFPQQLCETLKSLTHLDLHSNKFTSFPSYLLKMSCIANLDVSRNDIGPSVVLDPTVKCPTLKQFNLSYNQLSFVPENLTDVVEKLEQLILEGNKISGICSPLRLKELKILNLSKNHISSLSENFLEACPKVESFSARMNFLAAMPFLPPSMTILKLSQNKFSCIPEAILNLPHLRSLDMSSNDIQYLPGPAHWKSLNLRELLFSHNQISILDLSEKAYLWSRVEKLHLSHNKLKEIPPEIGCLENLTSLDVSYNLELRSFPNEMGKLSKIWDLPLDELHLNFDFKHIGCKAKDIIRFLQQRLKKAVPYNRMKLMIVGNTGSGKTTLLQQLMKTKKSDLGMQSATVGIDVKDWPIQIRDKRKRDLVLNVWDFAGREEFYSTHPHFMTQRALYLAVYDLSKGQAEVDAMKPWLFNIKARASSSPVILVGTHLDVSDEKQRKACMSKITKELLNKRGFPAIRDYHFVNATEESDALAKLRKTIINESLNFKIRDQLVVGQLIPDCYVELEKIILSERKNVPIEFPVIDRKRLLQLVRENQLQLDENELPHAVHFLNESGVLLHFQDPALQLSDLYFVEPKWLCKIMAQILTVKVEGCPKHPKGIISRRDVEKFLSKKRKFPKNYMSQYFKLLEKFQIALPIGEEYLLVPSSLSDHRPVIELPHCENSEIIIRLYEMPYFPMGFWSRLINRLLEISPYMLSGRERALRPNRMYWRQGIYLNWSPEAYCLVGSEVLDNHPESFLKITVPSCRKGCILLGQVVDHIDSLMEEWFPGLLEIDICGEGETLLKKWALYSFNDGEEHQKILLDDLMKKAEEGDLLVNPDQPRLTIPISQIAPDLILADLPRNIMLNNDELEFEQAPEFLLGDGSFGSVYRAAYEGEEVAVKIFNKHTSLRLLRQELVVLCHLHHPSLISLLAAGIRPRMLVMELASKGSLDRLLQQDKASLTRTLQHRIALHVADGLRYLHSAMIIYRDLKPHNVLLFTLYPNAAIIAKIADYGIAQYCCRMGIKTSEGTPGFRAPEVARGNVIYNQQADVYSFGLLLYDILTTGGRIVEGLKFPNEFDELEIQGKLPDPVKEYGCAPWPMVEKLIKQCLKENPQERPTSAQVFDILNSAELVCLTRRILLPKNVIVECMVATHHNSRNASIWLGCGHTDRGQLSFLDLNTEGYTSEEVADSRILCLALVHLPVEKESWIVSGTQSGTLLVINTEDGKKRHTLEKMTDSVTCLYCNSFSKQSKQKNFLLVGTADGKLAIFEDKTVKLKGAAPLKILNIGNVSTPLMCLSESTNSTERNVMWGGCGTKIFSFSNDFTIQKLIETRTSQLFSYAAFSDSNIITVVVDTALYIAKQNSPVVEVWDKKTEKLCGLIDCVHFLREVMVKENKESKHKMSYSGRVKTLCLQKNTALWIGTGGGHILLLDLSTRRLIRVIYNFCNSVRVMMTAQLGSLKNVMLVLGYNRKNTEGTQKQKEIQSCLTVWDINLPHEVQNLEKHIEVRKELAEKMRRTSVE
T2 sequence (Q96SB4 whole entry): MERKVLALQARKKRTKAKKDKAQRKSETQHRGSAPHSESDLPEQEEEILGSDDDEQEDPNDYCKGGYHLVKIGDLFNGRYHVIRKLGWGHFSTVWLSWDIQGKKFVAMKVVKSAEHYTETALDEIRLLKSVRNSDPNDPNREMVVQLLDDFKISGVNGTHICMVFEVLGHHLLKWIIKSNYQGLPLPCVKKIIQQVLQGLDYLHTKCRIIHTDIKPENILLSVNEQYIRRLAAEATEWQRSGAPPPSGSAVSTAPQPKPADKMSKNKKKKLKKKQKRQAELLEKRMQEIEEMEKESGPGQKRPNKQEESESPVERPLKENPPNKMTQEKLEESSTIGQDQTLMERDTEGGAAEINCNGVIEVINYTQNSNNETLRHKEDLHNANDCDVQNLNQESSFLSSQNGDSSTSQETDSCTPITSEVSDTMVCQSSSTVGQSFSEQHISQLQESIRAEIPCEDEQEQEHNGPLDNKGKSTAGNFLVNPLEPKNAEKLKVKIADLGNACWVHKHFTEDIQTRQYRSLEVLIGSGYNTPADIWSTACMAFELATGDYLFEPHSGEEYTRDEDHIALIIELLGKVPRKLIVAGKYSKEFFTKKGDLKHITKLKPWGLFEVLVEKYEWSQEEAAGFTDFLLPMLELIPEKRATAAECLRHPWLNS
Sequence of FLT4/VEGFR3 (P35916 25-1363): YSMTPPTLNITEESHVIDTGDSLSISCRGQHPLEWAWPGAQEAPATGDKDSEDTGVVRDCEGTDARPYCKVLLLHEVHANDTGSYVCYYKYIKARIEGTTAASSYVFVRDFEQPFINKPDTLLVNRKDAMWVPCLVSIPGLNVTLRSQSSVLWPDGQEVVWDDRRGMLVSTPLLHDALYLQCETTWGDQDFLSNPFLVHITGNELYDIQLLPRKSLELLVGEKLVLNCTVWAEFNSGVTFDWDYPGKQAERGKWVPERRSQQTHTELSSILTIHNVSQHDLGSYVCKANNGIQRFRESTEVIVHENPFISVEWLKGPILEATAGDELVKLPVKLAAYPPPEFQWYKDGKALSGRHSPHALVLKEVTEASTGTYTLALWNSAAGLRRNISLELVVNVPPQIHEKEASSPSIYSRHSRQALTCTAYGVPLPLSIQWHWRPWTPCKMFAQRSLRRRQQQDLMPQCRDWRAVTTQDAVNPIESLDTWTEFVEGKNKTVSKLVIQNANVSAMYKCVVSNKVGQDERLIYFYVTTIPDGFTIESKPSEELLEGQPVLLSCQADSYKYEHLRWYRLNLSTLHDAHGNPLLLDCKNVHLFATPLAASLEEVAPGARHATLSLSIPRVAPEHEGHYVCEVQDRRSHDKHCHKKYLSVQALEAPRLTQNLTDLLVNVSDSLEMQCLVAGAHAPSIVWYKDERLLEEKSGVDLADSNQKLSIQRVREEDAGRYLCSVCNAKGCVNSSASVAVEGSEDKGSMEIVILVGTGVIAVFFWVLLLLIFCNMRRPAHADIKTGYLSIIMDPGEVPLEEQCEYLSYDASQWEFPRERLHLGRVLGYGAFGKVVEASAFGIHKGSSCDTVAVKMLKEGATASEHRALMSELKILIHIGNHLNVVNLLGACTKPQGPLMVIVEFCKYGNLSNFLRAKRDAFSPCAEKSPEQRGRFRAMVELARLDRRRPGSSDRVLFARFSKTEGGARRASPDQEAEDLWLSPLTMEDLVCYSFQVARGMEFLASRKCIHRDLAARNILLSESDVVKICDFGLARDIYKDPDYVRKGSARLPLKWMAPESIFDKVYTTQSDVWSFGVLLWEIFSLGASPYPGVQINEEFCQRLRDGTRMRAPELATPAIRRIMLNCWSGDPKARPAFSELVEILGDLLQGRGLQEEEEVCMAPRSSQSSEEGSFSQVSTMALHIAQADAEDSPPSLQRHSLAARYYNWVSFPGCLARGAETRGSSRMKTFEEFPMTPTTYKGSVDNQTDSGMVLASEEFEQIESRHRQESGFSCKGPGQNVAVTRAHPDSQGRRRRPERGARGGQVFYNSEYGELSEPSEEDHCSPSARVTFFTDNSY
T9 sequence (O00444 2-275 G95L): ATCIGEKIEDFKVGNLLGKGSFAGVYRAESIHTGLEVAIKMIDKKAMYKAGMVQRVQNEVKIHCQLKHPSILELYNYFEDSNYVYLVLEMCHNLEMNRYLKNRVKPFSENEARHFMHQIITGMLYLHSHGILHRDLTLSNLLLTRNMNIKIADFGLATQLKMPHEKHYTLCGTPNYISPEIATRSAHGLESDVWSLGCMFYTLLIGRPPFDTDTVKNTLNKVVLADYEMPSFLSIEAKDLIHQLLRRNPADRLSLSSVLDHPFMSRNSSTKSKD

COc1ccc2c(c1)[C@]1(C[C@H]1c1ccc3c(/C=C/c4ccc(CN5C[C@@H](C)O[C@@H](C)C5)cc4)n[nH]c3c1)C(=O)N2 (relative stereo) [CFI-400945, (1R,2S).2-(3-((E).4-(((cis).2,6-dimethylmorpholino)methyl)styryl). 1H.indazol-6-yl)-5′-methoxyspiro[cyclopropane-1,3′-indolin]-2′-one, reference compound] was tested, and the “nuclear morphology and division” value (HeLa cells) was “become grossly multinuclear”, the “effect on centrosome number” value (HeLa cells; 3 days) was “causes centrosome amplification; also recorded: does not deplete centrioles from cells; also recorded: induces centrosome amplification” and the Plk4-YFP stabilization [1] was “only slight Plk4-YFP stabilization”.
With COc1c(Nc2cc(C)[nH]n2)nc(Sc2ccc(S(=O)(=O)Cc3cccc([N+](=O)[O-])c3F)cc2F)nc1N1CCCCC1 [Centrinone-B, 2-((2-fluoro-4-((2-fluoro-3-nitrobenzyl)sulfonyl)phenyl)thio)-5-methoxy-N-(5-methyl-1H-pyrazol-3-yl)-6-(piperidin-1-yl)pyrimidin-4-amine] the Ki (Aurora B) was 5600 nM, the “Plk4 selectivity, Ki(Aurora B)/Ki(Plk4)” value (Aurora B) was 9523 and the “Plk4 selectivity, Ki(SRPK1)/Ki(Plk4)” value (SRPK1) was greater than 847. For the same compound, the Ki (SRPK1; [4]) was greater than 500 nM, the “Plk4 selectivity, Ki(RET)/Ki(Plk4)” value (RET) was 332 and the Ki (RET; [4]) was 195 nM. The “Plk4 selectivity, Ki(ROS/ROS1)/Ki(Plk4)” value (ROS/ROS1) was 153, the Ki (ROS/ROS1; [4]) was 90.1 nM and the “Plk4 selectivity, Ki(FLT4/VEGFR3)/Ki(Plk4)” value (FLT4/VEGFR3) was 99. For the same compound, the Ki (FLT4/VEGFR3; [4]) was 58 nM, the Ki [2] was 0.6 nM and 0.59 nM and the “Plk4 selectivity, Ki(TNK1)/Ki(Plk4)” value (TNK1) was 10. The Ki (TNK1; [4]) was 6.04 nM, the “Plk4 selectivity, Ki(LRRK2)/Ki(Plk4)” value (LRRK2) was 13 and the Ki (LRRK2; [4]) was 7.66 nM. For the same compound, the Ki (human Aurora A) was 1240 nM, the “Plk4 selectivity, Ki(Aurora A)/Ki(Plk4)” value (human Aurora A) was 2108 and the centrosome depletion at (centrosomes in cells) was 500 nM. For the same compound, the “Plk4 selectivity, Ki(JAK2)/Ki(Plk4)” value (JAK2) was greater than 847, the Ki (JAK2; [4]) was greater than 500 nM and the Ki [3] was 498 nM. The “Plk4 selectivity, Ki(Plk4 G95L)/Ki(Plk4)” value [3] was 847.
With CCc1cccc(CC)c1NC(=O)c1nn(C)c2c1CCc1cnc(Nc3ccc(C(=O)NC4CCN(C)CC4)cc3OC(F)(F)F)nc1-2 [NMS-P715] the “percentage of daughters not dividing within 48 hours” value (RPE1 cells) was 11.4%.
